What was measured:
integration = conditions: Vozzolo et al., J. Biol. Chem. 2010; cited from earlier work
HIV reactivation = conditions: Anderson et al., PNAS 2014; cited from earlier work
[1] = Toxicity by counting live cells (trypan blue exclusion); type: cell-based; conditions: live cell count, read-out: Cytotoxicity TC50
Description: (§1) Several additional compounds were also tested for HIV virus inhibition, and the results are show in Table 5. P24 concentration in the supernatant was measured using a commercial ELISA assay. Toxicity was assessed by counting live cells (trypan blue exclusion)

HIV-1 = test: HIV virus inhibition, p24 in supernatant by ELISA; type: cell-based; conditions: for EC50: Human immunodeficiency virus 1, HIV-1, p24 ELISA of supernatant
Description: as §1

[2] = Cell viability (CellTiter 96 AQueous One) in HepG2 2.2.15; type: cell-based; conditions: human, HepG2-2.2.15 cells, read-out: Cytotoxicity TC50
Description: The anti-HBV assay employed real-time qPCR (TaqMan) to directly measure extracellular HBV DNA copy number. HepG2-2.2.15 cells were plated in 96-well microtiter plates. Only the interior wells were utilized to reduce “edge effects” observed during cell culture; the exterior wells were filled with complete medium to help minimize sample evaporation. After 16-24 hours the confluent monolayer of HepG2-2.2.15 cells was washed and the medium replaced with complete medium containing various concentrations of a test compound in triplicate. 3TC was used as positive control, while media alone was added to cells as negative control (virus control, VC). Three days later the culture medium was replaced with fresh medium containing the appropriately diluted drug. Six days following the initial administration of the test compound, the cell culture supernatant collected, treated with pronase and then used in a real-time quantitative TaqMan qPCR assay. The PCR-amplified HBV DNA was detected in real-time by monitoring increases in fluorescence signals that result from the exonucleolytic degradation of a quenched fluorescent probe molecule that hybridizes to the amplified HBV DNA. […] Antiviral activity was calculated from the reduction in HBV DNA levels (IC50). […] The therapeutic index (TI) was calculated as TC50/IC50.

Hepatitis B Virus (HBV) = test: Anti-HBV assay, real-time qPCR of extracellular HBV DNA in HepG2 2.2.15; type: cell-based
Description: The anti-HBV assay employed real-time qPCR (TaqMan) to directly measure extracellular HBV DNA copy number. HepG2-2.2.15 cells were plated in 96-well microtiter plates. Only the interior wells were utilized to reduce “edge effects” observed during cell culture; the exterior wells were filled with complete medium to help minimize sample evaporation. After 16-24 hours the confluent monolayer of HepG2-2.2.15 cells was washed and the medium replaced with complete medium containing various concentrations of a test compound in triplicate. 3TC was used as positive control, while media alone was added to cells as negative control (virus control, VC). Three days later the culture medium was replaced with fresh medium containing the appropriately diluted drug. Six days following the initial administration of the test compound, the cell culture supernatant collected, treated with pronase and then used in a real-time quantitative TaqMan qPCR assay. The PCR-amplified HBV DNA was detected in real-time by monitoring increases in fluorescence signals that result from the exonucleolytic degradation of a quenched fluorescent probe molecule that hybridizes to the amplified HBV DNA. For each PCR amplification, a standard curve was simultaneously generated using dilutions of purified HBV DNA. Antiviral activity was calculated from the reduction in HBV DNA levels (IC50). CellTiter 96® AQueous One Solution Cell Proliferation Assay kit (Promega) was employed to measure cell viability which was used to calculate cytotoxicity (TC50). The therapeutic index (TI) was calculated as TC50/IC50.

Row | Compound | CC50 [1] | Selectivity Index TI (TC50/EC50) (HIV-1) | EC50 (HIV-1) | other results
1 | C=CCNC1=C2C[C@@H](C)C[C@H](OC)[C@H](O)[C@@H](C)/C=C(\C)[C@H](OC(N)=O)[C@@H](OC)/C=C\C=C(/C)C(=O)NC(=CC1=O)C2=O [17-allylamino-17-demethoxy-geldanamycin] | – | – | – | Effect on integration (integration): no effect
2 | CCNC(=O)c1noc(-c2cc(C(C)C)c(O)cc2O)c1-c1ccc(CN2CCOCC2)cc1 [AUY922] | – | – | – | Suppression of HIV reactivation (HIV reactivation): almost completely suppressed
3 | Cc1nn(-c2ccc(C(N)=O)c(NC3CCC(O)CC3)c2)c2c1C(=O)CC(C)(C)C2 (stereo not drawn) [Compound 1, 2-((4-hydroxycyclohexyl)amino)-4-(3,6,6-trimethyl-4-oxo-4,5,6,7-tetrahydro-1H-indazol-1-yl)benzamide] | 436 nM | 54 | 8.1 nM | –
4 | Cc1nn(-c2ccc(C(N)=O)c(NCCO)c2)c2c1C(=O)CC(C)(C)C2 [Compound 2, 2-((2-hydroxyethyl)amino)-4-(3,6,6-trimethyl-4-oxo-4,5,6,7-tetrahydro-1H-indazol-1-yl)benzamide] | 617 nM | 12 | 52 nM | –
5 | COCCNc1cc(-n2nc(C)c3c2CC(C)(C)CC3=O)ccc1C(N)=O [Compound 3, 2-((2-methoxyethyl)amino)-4-(3,6,6-trimethyl-4-oxo-4,5,6,7-tetrahydro-1H-indazol-1-yl)benzamide] | 1160 nM | 901 | 1.3 nM | –
6 | Nc1ccn([C@@H]2CS[C@H](CO)O2)c(=O)n1 [Compound 3TC, 2′,3′-dideoxy-3′-thiacytidine, reference compound] | – | – | – | CC50 at 6 days [2]: > 500 nM; Selectivity Index TI (TC50/IC50) (Hepatitis B Virus (HBV); HBV in HepG2 2.2.15): >14.0; IC50 (Hepatitis B Virus (HBV); Hepatitis B virus, 144 h, HBV in HepG2 2.2.15, six days, read-out: Antiviral Activity IC50 (reduction in HBV DNA levels)): 35.6 nM
7 | CCOCCNc1cc(-n2nc(C)c3c2CC(C)(C)CC3=O)ccc1C(N)=O [Compound 4, 2-((2-ethoxyethyl)amino)-4-(3,6,6-trimethyl-4-oxo-4,5,6,7-tetrahydro-1H-indazol-1-yl)benzamide] | 2170 nM | 24 | 89 nM | –
8 | Cc1nn(-c2ccc(C(N)=O)c(NCCOCCOCCN)c2)c2c1C(=O)CC(C)(C)C2 [Compound 5, 2-((2-(2-(2-aminoethoxy)ethoxy)ethyl)amino)-4-(3,6,6-trimethyl-4-oxo-4,5,6,7-tetrahydro-1H-indazol-1-yl)benzamide] | – | – | 2160 nM | –
9 | Cc1nn(-c2ccc(C(N)=O)c(NCCCO)c2)c2c1C(=O)CC(C)(C)C2 [Compound 6, 2-((3-hydroxypropyl)amino)-4-(3,6,6-trimethyl-4-oxo-4,5,6,7-tetrahydro-1H-indazol-1-yl)benzamide] | – | – | 32 nM | –
10 | COCCCNc1cc(-n2nc(C)c3c2CC(C)(C)CC3=O)ccc1C(N)=O [Compound 7, 2-((3-methoxypropyl)amino)-4-(3,6,6-trimethyl-4-oxo-4,5,6,7-tetrahydro-1H-indazol-1-yl)benzamide] | – | – | 81 nM | –
11 | CCOCCCNc1cc(-n2nc(C)c3c2CC(C)(C)CC3=O)ccc1C(N)=O [Compound 8, 2-((3-ethoxypropyl)amino)-4-(3,6,6-trimethyl-4-oxo-4,5,6,7-tetrahydro-1H-indazol-1-yl)benzamide] | – | – | 42 nM | –

Reference: patent publication US20160143884A1, “USE OF TETRAHYDROINDAZOLYLBENZAMIDE AND TETRAHYDROINDOLYLBENZAMIDE DERIVATIVES FOR THE TREATMENT OF HUMAN IMMUNODEFICIENCY VIRUS (HIV) AND ACQUIRED IMMUNE DEFICIENCY SYNDROME (AIDS)” (Esanex, Inc., priority 2014, published 2016)
